Data: US20120172397A1, “HEXAHYDROCYCLOPENTA[f]INDAZOLE 5-YL ETHANOLS AND DERIVATIVES THEREOF AS SELECTIVE GLUCOCORTICOID RECEPTOR MODULATORS” (MERCK SHARP & DOHME CORP., priority 2009, published 2012)
Like-named read-outs stand apart in the source and are kept apart here.

Assays:
[1] = system: human GR (TNFα promoter β-lactamase reporter, U937 cells); assay: Transrepression Assay (GITAR), TNFα-β-lactamase reporter in U937 cells; assay type: cell-based; conditions: for EC50: TNFα-β-lactamase reporter, PMA/LPS stimulated, read-out: Transrepression U937 Cells GITAR IP (inflection point); for Emax / Transrepression U937 Cells GITAR Emax: activity repressed by 100 nM dexamethasone set as 100%
Source text: This assay assesses the ability of test compounds to control transcription from the TNFα-β-lactamase reporter gene in U937 cells, a human myelomonocytic leukemia cell line that naturally expresses the human GR. The assay measures compound dependent-repression of the TNFa promoter linked to a reporter gene.
The human U937cells that had been stablely transfected with the TNF-α promoter driving β-lactamase are used for this assay. U937 cells contain an endogenous glucocorticoid receptor (GR). Cells are maintained in RPMI 1640 Growth medium (Gibco Cat#11875-093) containing 25 mM HEPES, 10% FBS, 2 mM L-Glutamine, 1 mM Sodium pyruvate, 25 μg/ml Gentamicin (Gibco Cat#15710-064), 1:1000 2-Mercaptoethanol (Gibco Cat#21985-023) and 0.8 mg/ml G418 (Gibco Cat#10131-027). The density of the cells in the flask needs to be about 1×106−3×10^6/ml at the time of harvest. Usually, the cells are split to 1.2˜1.4×10^5/ml (1:10) 3 days prior to the assay. 50,000 cells/well are plated in 96 well black-walled plates the day of assay. Test compounds are added 10 μL/well, and cells are incubated at 37° C. for 30-45 min. For assaying compounds, first dilute 1:10 in DMSO to make 1 mM, then further dilute 1:100 in medium to make 10 × stock prior to adding to the cells. Add 50 ng/ml PMA (Sigma, cat# P8139) 10 μL/well to a final concentration 5 ng/ml, and 1 μg/ml LPS (Sigma, cat# L4130) 10 μL/well to a final concentration 100 ng/ml. Incubate cells at […] overnight for˜18 hr. PMA is stored frozen as 100 μg/ml stock in DMSO. Dilute 1:10 in DMSO for a working stock of 10 μg/ml and store at −20° C. For assaying, dilute the 10 μg/ml working stock 1:200 in medium to make a 10× solution (50 ng/ml). Store frozen LPS at 1 mg/ml in PBS, dilute 1:1000 in medium to make 10× (1 μg/ml) for the assay. Add 6× loading buffer (CCF2-AM) 20 μL/well, and incubate at room temperature for 70˜90 min. […] The activity repressed by 100 nM dexamethasone alone is set as 100% activity.

[2] = system: human GR (MMTV-LUC reporter gene, A549 cells); assay: Trans-Activation Modulation of Glucocorticoid Receptor Assay (GRAMMER), MMTV-LUC reporter in A549 cells; assay type: cell-based; conditions: for EC50: MMTV-LUC reporter, agonist mode, read-out: Transactivation A549 Cells GRAMMER IP (inflection point); for Emax / Transactivation A549 Cells GRAMMER Emax: Emax relative to the activity obtained with 300 nM dexamethasone; for Emax: read-out: Transactivation A549 Cells GRAMMER Emax
Source text: Trans-Activation Modulation of Glucocorticoid Receptor Assay
This assay assesses the ability of test compounds to control transcription from the MMTV-LUC reporter gene in lung adenocarcinoma A549 cells or HeLa cells, a human […] cell line that naturally expresses the human GR. The assay measures induction of a modified MMTV LTR/promoter linked to the LUC reporter gene.
The routine transient assay consists of plating 7,000-25,000 cells/well of a white, clear-bottom 96-well plate. Alternatively, 384-well plates can be used at a cell concentration of 10,000 /well. The media that the cells are plated in is “exponential growth medium” which consists of phenol red-free RPMI1640 containing 10%FBS, 4 mM L-glutamine, 20 mM HEPES, 10 μg/mL human insulin, and 20 μg/mL gentamicin. Incubator conditions are 37° C. and 5% CO2. The transfection is done in batch mode. The cells are trypsinized and counted to the right cell number in the proper amount of fresh media. It is then gently mixed with the FuGene6/DNA mix and plated onto the 96 or 384-well plate, all the wells receive 100 μL or 40 μL, respectively, of medium +lipid/DNA complex then incubated 37° C. overnight. The transfection cocktail consists of serum-free OptiMEM, FuGene6 reagent and DNA. The manufacturer's (Roche Biochemical) protocol for cocktail setup is as follows: The lipid to DNA ratio is approximately 2.5:1 and the incubation time is 20 min at room temperature. Sixteen to 24 hours after transfection, the cells are treated with dexamethasone to a final concentration of 10 nM as well as the compound of interest, such that final DMSO (vehicle) concentration is equal to or less than 1%. Each plate also contains samples that are treated with 10 nM dexamethasone alone, which is used as the 100% activity control. The cells are exposed to the compounds for 24 hours. After 24 hours, the cells are lysed by a Promega cell culture lysis buffer for approximately 30 min and then the luciferase activity in the extracts is assayed in the 96-well format luminometer. In 384-well format, Steady-Glo (Promega) or Steady-Lite (PerkinElmer) can be used by adding an equal volume of reagent to the media present in each well. Activity induced by 10 nM dexamethasone alone is set at 100% activity. Antagonist activity is calculated by determining the decrease in dexamethasone-induced activity in response to compound treatment relative to samples that were treated with dexamethasone alone. Results are expressed as % inhibition of 10 nM dexamethasone activity or as fold of 10 nM dexamethasone activity. This transactivation assay can be performed in an agonist and antagonist mode to identify these different activities.
Activity of test compounds is calculated as the Emax relative to the activity obtained with 300 nM dexamethasone. Activity of test compounds is calculated as the Emax relative to the activity obtained with 300 nM DEX. The exemplified tissue selective glucocorticoid receptor modulators of the present invention display agonist activity in this assay of greater than 5% and less than 100%, and maximal transactivation activity less then maximal transrepression activity. […]

[3] = Homo sapiens, U-937, U937 cells

| Structure (SMILES) | EC50 [1, 3] [nM] | EC50 ([2]; Homo sapiens, A549, A549 cells) [nM] | EC50 ([1]; U937 cells) [nM] | EC50 ([2]; A549 cells) [nM] | Emax [1, 3] [%] | Emax ([2]; Homo sapiens, A549, A549 cells) [%] | Transrepression U937 Cells GITAR Emax ([1]; U937 cells) [%] | Transactivation A549 Cells GRAMMER Emax ([2]; A549 cells) [%] |
| --- | --- | --- | --- | --- | --- | --- | --- | --- |
| COc1ccc(C(O)C[C@H]2CCC3=Cc4c(cnn4-c4cccnc4)C[C@@]32C)cn1 (stereo partly drawn) [Example 3, 1-(6-methoxypyridin-3-yl)-2-[(4αR,5R)-4α-methyl-1-(pyridin-3-yl)-1,4,4α,5,6,7-hexahydrocyclopenta[f]indazol-5-yl] ethanol] | 200 | 160 |  |  | 85.2 | 101 |  |  |
| C[C@]12Cc3cnn(-c4cccnc4)c3C=C1CC[C@@H]2CC(O)c1ccccn1 (single isomer, unassigned) [Example 6b] |  |  | 1380 | 1430 |  |  | 30.0 | 2.2 |
| COc1ccc(C(O)C[C@H]2CCC3=Cc4c(cnn4-c4cccnc4)C[C@@]32C)cc1 (stereo partly drawn) [Example 5, 1-(4-methoxyphenyl)-2-[(4αR,5R)-4α-methyl-1-(pyridin-3-yl)-1,4,4α,5,6,7-hexahydrocyclopenta[f]indazol-5-yl] ethanol] | 20.7 | 53.4 |  |  | 87.3 | 90.7 |  |  |
| COc1ccccc1C(O)C[C@H]1CCC2=Cc3c(cnn3-c3cccnc3)C[C@@]21C (single isomer, unassigned) [Example 2b] |  |  | 1160 | 812 | 73.9 |  |  | 21.5 |
| C[C@]12Cc3cnn(-c4cccnc4)c3C=C1CC[C@@H]2CC(O)c1ccccc1 (single isomer, unassigned) [Example 1b] |  |  | 1720 | 811 |  |  | 49.3 | 8.5 |
| C[C@]12Cc3cnn(-c4cccnc4)c3C=C1CC[C@@H]2CC(O)c1ccccn1 (single isomer, unassigned) [Example 6a] |  | 1170 | 558 |  | 16.6 | 1.6 |  |  |

The remaining compounds from weak to strong by EC50 ([1]; U937 cells), led by results:

| EC50 [1, 3] [nM] | EC50 ([2]; Homo sapiens, A549, A549 cells) [nM] | EC50 ([1]; U937 cells) [nM] | EC50 ([2]; A549 cells) [nM] | Structure (SMILES) | Emax [1, 3] [%] | Emax ([2]; Homo sapiens, A549, A549 cells) [%] | Transrepression U937 Cells GITAR Emax ([1]; U937 cells) [%] | Transactivation A549 Cells GRAMMER Emax ([2]; A549 cells) [%] |
| --- | --- | --- | --- | --- | --- | --- | --- | --- |
|  |  | 548 | 797 | COc1cccc(C(O)C[C@H]2CCC3=Cc4c(cnn4-c4cccnc4)C[C@@]32C)c1 (single isomer, unassigned) [Example 4b] |  |  | 47.0 | 15.3 |
|  |  | 393 | 316 | CC(O)(C[C@H]1CCC2=Cc3c(cnn3-c3cccnc3)C[C@@]21C)c1ccccc1 (single isomer, unassigned) [Example 7b] |  |  | 65.9 | 20.0 |
|  |  | 277 | 343 | C[C@]12Cc3cnn(-c4cccnc4)c3C=C1CC[C@@H]2CC(O)c1ccccc1 (single isomer, unassigned) [Example 1a] |  |  | 75.4 | 29.7 |
|  |  | 229 | 301 | COc1ccccc1C(O)C[C@H]1CCC2=Cc3c(cnn3-c3cccnc3)C[C@@]21C (single isomer, unassigned) [Example 2a] |  |  | 79.5 | 68.5 |
|  | 472 | 114 |  | COc1cccc(C(O)C[C@H]2CCC3=Cc4c(cnn4-c4cccnc4)C[C@@]32C)c1 (single isomer, unassigned) [Example 4a] |  |  | 74.8 | 47.7 |
|  |  | 78.7 | 74.3 | CC(O)(C[C@H]1CCC2=Cc3c(cnn3-c3cccnc3)C[C@@]21C)c1ccccc1 (single isomer, unassigned) [Example 7a] | 84.2 |  |  | 53.1 |
